Test results published in patent publication EP0275998A2, “Pharmaceutical preparation for treatment of hyperacidity in body fluids” (priority 1987, dated 1988).

How the values were obtained:
[1] = Titration of rat gastric juice with antacid solutions; assay type: physicochemical; conditions: aqueous solutions: sodium bicarbonate 150 mM, NMG 150 mM, NMGP 20 mg/cc
From the text: Results are given in the appended Figure III.

[2] = Plasma concentration of various components after i.v. administration of NMG; assay type: in vivo; conditions: cat
[3] = assay type: in vivo, cats
Procedure: In vivo use of preparations of the invention as antiacidotic agents. […] The recovery of the pH to the normal value follows roughly an exponential course with a time constant of 1-3 minutes. […] Results are given in the appended Figure II.

CNC[C@H](O)[C@@H](O)[C@H](O)[C@H](O)CO [NMG, 1-deoxy-1-(methylamino)-D-glucitol]
antacid potency in titration of gastric juice [1]: more potent than sodium bicarbonate
Plasma concentration Potassium ([2]; 1 min. after i.v. NMG 0.3 mmol/kg (before: 4.2)): 4200 µM
Plasma concentration Urea ([2]; 1 min. after i.v. NMG 0.3 mmol/kg (before: 7)): 6900 µM
Plasma concentration Chloride ([2]; 1 min. after i.v. NMG 0.3 mmol/kg (before: 113)): 112000 µM
Plasma concentration Sodium ([2]; 1 min. after i.v. NMG 0.3 mmol/kg (before: 142)): 145000 µM
Plasma concentration Potassium ([2]; 30 min. after i.v. NMG 0.3 mmol/kg (before: 4.2)): 4200 µM
Plasma concentration Urea ([2]; 30 min. after i.v. NMG 0.3 mmol/kg (before: 7)): 6800 µM
Plasma concentration Chloride ([2]; 30 min. after i.v. NMG 0.3 mmol/kg (before: 113)): 113000 µM
Plasma concentration Sodium ([2]; 30 min. after i.v. NMG 0.3 mmol/kg (before: 142)): 144000 µM
Plasma concentration Potassium ([2]; 120 min. after i.v. NMG 0.3 mmol/kg (before: 4.2)): 4200 µM
Plasma concentration Urea ([2]; 120 min. after i.v. NMG 0.3 mmol/kg (before: 7)): 6600 µM
Plasma concentration Chloride ([2]; 120 min. after i.v. NMG 0.3 mmol/kg (before: 113)): 116000 µM
Plasma concentration Sodium ([2]; 120 min. after i.v. NMG 0.3 mmol/kg (before: 142)): 147000 µM
urine pH ([3]; artificially ventilated cats, 1cc/Kg of 300 mM): Parallel increase
partial pressure of CO₂ (P CO2) ([3]; artificially ventilated cats, 1cc/Kg of 300 mM isotonic solution): clear decrease
time constant of recovery of the pH to the normal value ([3]; artificially ventilated cats, 1cc/Kg of 300 mM, roughly exponential course): 1-3 minutes
blood pH ([3]; artificially ventilated cats, rapid (about 15 sec.) administration of 1cc/Kg of 300 mM isotonic solution, immediate elevation from about 7.4): ~7.9
effect on respiration ([3]; in vivo): no significant effect
effects in the vein through which the solution was administered ([3]; in vivo, iv): No gross deleterious effects
